Consider 12 compounds from patent publication US10011568B2, “Cyclohexyl pyridine derivative” (priority 2014, dated 2018).

The target of one series is human NK1 receptor (Homo sapiens (Human), UniProt P25103). The experiment in a line: Affinity for human NK1 receptor (125I-substance P receptor binding test, membrane fraction). The following applies: membrane fraction of human NK1 receptor-expressing 293T cells; read-out: IC50 (nM), concentration required for 50% inhibition of 125I-substance P binding. How it is done:
Affinity for Human NK1 Receptor
(3) Measurement of Binding Affinity to Human NK1 Receptor
(3-1) Preparation of Membrane Fraction from Human NK1 Receptor-Expressing Cells
Human NK1 receptor-expressing cells were prepared in a 175 cm^2 culture flask (Nippon Becton Dickinson). The formation of a complex of the human NK1 receptor expression plasmid and Lipofectamine 2000 was performed by calculating the culture area ratio and increasing the scale of the method described in the above 2-4 by the ratio. The human NK1 receptor-expressing cells were collected in a buffer solution for the membrane fraction preparation (50 mM Tris (Wako Pure Chemical), 120 mM sodium chloride (Wako Pure Chemical Industries), 5 mM potassium chloride (Wako Pure Chemical Industries), 1 mM ethylenediaminetetraacetic acid (Sigma), 0.002 mg/mL chymostatin (Peptide Institute), 0.04 mg/bacitracin (Wako Pure Chemical Industries), 0.005 mg/mL phosphoramidon (Peptide Institute) and 0.5 mM phenylmethylsulfonyl fluoride (Wako Pure Chemical Industries), pH7.4) and centrifuged at 1,880 g for 10 minutes, and the cell sediment was suspended in the buffer solution for the membrane fraction preparation. After freezing and thawing the cells once, the cells were homogenized using a Dounce-type homogenizer (cooled on ice, 1000 rpm, 20 times) The homogenized cell suspension was centrifuged at 20,000 rpm for 10 minutes, and the supernatant was removed to obtain cell sediment. The cell sediment was suspended again in the buffer solution for the membrane fraction preparation and homogenized using a Dounce-type homogenizer (cooled on ice, 1000 rpm, 30 times). The cell suspension was centrifuged at 20,000 rpm for 10 minutes, and the supernatant was removed to obtain cell sediment. The same homogenization and centrifugation were repeated again, and final cell sediment was obtained. The final cell sediment was suspended in a buffer solution for the receptor binding test (50 mM Tris (Wako Pure Chemical Industries). 3 mM manganese chloride (Wako Pure Chemical Industries), 0.002 mg/mL chymostatin (Peptide Institute), 0.04 mg/bacitracin (Wako Pure Chemical Industries) and 0.02% bovine serum albumin (Sigma), pH 7.4), and the protein concentration was measured using BCA Protein Assay Kit (Pierce).
(3-2) Receptor Binding Test
The buffer solution for the receptor binding test was dispensed to the wells of a 96-well assay plate (Greiner) at 22.5 μL/well. DMSO solutions of a test compound, which were prepared at an 80-time higher concentration using 100% dimethyl sulfoxide (DMSO), were added to the wells at 2.5 μL/well (final concentrations of 1 nM to 100 nM), and the solutions were mixed. As a radiolabeled ligand, ^125I-substance P (Substance P, [^125I]Tyr^8-, Perkin Elmer) was used. ^125I-substance P was diluted with the buffer solution for the receptor binding test to a concentration resulting in 125 pmol/25 μL/well and added to the 96-well assay plate, and the solutions were mixed. The membrane fraction prepared from the human NK1 receptor-expressing cells was diluted with the buffer solution for the receptor binding test to a concentration resulting in 8 to 10 μg/well, suspended until the suspension became in such a homogenous state that the suspension could flow through a 27G injection needle smoothly and then added to the 96-well assay plate at 150 μL/well. Then, the plate was incubated at room temperature for 60 minutes while shaking the plate. The reaction solutions were suction-filtered through a multiscreen 96-well filter plate (Millipore) which had been pre-treated with 0.3% polyethyleneimine, and the reaction was terminated by washing with a washing solution (50 mM Tris and 0.02% bovine serum albumin, pH 7.4) four times. The bottom of the microplate was dried at 60° C., and then 100 μL/well of MicroScint 20 (PerkinElmer) was dispensed to the wells. The top of the plate was sealed with TopSeal A (PerkinElmer), and the plate was shaken for 5 to 10 minutes. […]

Series [1] in a line: Measurement of drug concentrations in the brain after foot-tapping. The class given is in vivo. The following applies: male gerbil, 0.1 mg/kg iv, after foot-tapping was finished. On the procedure: A male gerbil (Japan SLC) was anesthetized with isoflurane, and 0.1 mg/kg of a test compound was administered from the jugular vein. After four hours. GR73632 (5 pmol/5 μl saline), which is an NK1 receptor agonist, was administered into the cerebral ventricle at the part 1 mm lateral to and 4.5 mm below the bregma in the head, under anesthesia with isoflurane. After the administration, the gerbil was moved to an observation cage, and the foot-tapping period during 30 minutes after the recovery of the righting reflex was measured. The foot-tapping inhibition rate (%) of each test compound was calculated by the following equation. Foot-tapping inhibition rate (%)−{1−(Fool-tapping period when test compound was administered)/(Foot-tapping period when solvent was administered)}×100 (2) Measurement of Drug Concentrations
After foot-tapping was finished, laparotomy was performed immediately under anesthesia with ether, and a blood sample was taken from the abdominal vena cava. At the same lime, the brain was extracted. Through a quantitative analysis using liquid chromatography-mass spectrometry (LC/MS), the concentrations of the test compound in the plasma and the brain were measured.
In the table, Ex. No. means the Example number. Inhibition (%) is the loot-tapping inhibition rate, and Cone. (nM) is the drug concentration in the brain.

In a further series the target is hERG channel (Homo sapiens (Human), UniProt Q12809). As to the kind of experiment: Evaluation of hERG current (whole-cell patch clamp). The following applies: 10 μM, application for 10 minutes, HEK293 cells, n = 3, average ± standard error. The class given is cell-based. How it is done: Evaluation of hERG Current
A dimethyl sulfoxide (DMSO) solution of the test compound with a concentration 1000 times higher than the evaluation concentration (10 μM) was prepared, and a solution with a final application concentration was prepared by diluting the solution. The hERG current was measured by a whole-cell method using a patch clamp system, where a cover glass on which hERG channel-expressing human embryonic kidney (HEK) 293 cells were seeded was placed on a perfusion bath and a perfusion solution was caused to flow. The change in the hERG channel-derived current caused by a pulse protocol (holding potential of −80 mV, depolarization pulse of +20 mV for 1.9 seconds, repolarization pulse of −50 mV for 2 seconds, stimulated at intervals of 15 seconds) of data acquisition/analysis software, pCLAMP9 (Axon instruments. Inc.) was measured. The measurement conditions were a flow rate of about 1.5 mL/min and a temperature of about 33° C. Two wave forms immediately before applying the test compound and two wave forms immediately after the application for 10 minutes were analyzed, and the statistical analysis was performed. The value before the application of the test compound was regarded as 100%, and the change rate based on the value was determined.
In the table, Ex. No. means the Example number, and the change rate is the average±the standard error.

SMILES strings stand for the structures.

human NK1 receptor, sequence (P25103 whole entry): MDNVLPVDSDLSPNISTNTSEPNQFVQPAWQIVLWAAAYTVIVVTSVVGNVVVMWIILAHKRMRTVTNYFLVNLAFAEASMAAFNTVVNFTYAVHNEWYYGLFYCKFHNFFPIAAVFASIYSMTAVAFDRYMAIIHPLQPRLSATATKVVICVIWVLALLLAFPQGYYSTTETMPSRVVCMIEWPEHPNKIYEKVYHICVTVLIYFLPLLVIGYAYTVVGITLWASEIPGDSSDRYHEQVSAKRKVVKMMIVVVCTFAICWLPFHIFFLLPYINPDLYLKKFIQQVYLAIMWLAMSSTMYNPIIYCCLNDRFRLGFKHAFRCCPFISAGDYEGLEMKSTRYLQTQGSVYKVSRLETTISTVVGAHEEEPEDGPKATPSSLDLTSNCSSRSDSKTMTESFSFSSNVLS
hERG channel, sequence (Q12809 whole entry, the tested form may be a part): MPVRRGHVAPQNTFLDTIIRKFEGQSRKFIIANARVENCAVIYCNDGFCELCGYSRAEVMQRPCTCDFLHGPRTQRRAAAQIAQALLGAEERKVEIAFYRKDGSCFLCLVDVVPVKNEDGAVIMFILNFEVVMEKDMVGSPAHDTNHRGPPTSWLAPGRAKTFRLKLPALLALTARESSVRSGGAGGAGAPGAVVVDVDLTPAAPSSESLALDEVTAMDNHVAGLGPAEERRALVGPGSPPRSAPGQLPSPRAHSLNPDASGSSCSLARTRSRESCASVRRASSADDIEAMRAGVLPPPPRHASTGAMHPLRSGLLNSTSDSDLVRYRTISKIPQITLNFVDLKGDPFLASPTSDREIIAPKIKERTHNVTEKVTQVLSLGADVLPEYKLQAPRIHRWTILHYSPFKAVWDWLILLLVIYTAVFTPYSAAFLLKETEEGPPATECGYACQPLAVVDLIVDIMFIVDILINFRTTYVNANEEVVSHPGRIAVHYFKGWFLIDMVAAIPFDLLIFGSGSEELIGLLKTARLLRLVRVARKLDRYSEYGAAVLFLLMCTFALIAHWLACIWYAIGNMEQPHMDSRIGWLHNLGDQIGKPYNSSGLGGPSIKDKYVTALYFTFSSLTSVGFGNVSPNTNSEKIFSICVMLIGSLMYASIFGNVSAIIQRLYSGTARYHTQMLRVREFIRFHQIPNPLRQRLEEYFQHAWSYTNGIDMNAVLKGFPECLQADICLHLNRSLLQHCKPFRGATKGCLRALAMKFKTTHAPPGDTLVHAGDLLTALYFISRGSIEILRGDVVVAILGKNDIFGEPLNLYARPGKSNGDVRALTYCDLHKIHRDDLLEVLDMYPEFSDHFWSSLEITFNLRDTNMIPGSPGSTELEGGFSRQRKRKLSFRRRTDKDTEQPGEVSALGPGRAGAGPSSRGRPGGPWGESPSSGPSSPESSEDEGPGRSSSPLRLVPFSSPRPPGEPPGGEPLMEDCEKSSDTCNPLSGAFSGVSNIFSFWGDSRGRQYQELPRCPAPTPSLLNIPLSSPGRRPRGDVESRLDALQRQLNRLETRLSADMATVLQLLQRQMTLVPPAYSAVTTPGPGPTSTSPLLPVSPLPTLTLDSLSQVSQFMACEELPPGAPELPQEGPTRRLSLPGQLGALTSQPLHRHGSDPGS

Turning to `Cc1cc(F)ccc1-c1cc(C2CCC(C(=O)O)CC2)ncc1N(C)C(=O)C(C)(C)c1cc(C(F)(F)F)cc(C(F)(F)F)c1` (stereo not shown) [Example 1, 4-[5-{[2-(3,5-Bistrifluoromethylphenyl)-2-methylpropionyl]methylamino}-4-(4-fluoro-2-methylphenyl)pyridin-2-yl]cyclohexanecarboxylic Acid], the IC50 at human NK1 receptor was determined as 1.45 nM. For the same compound, the “Conc. (nM), drug concentration in the brain” value (from here on “Conc. (nM), drug concentration”) in series [1] amounted to 24 nM.
For `Cc1cc(F)ccc1-c1cc(C2CCCC(CC(=O)O)C2)ncc1N(C)C(=O)C(C)(C)c1cc(C(F)(F)F)cc(C(F)(F)F)c1` (stereo not shown) [Example 3, {3-[5-{[2-(3,5-Bistrifluoromethylphenyl)-2-methylpropionyl]methylamino}-4-(4-fluoro-2-methylphenyl)pyridin-2-yl]cyclohexyl}acetic Acid] the same measures were 2.1 nM and 48 nM.
For `Cc1cc(F)ccc1-c1cc(C2(C)CCCC(CC(=O)O)C2)ncc1N(C)C(=O)C(C)(C)c1cc(C(F)(F)F)cc(C(F)(F)F)c1` (stereo not shown) [Example 4, {3-[5-{[2-(3,5-Bistrifluoromethylphenyl)-2-methylpropionyl]methylamino}-4-(4-fluoro-2-methylphenyl)pyridin-2-yl]-3-methylcyclohexyl}acetic Acid] the same measures were 2.35 nM and 35 nM.
In the case of `Cc1cc(F)ccc1-c1cc(C2CCC3(CC2)CC3C(=O)O)ncc1N(C)C(=O)C(C)(C)c1cc(C(F)(F)F)cc(C(F)(F)F)c1` (stereo not shown) [Example 7, 6-[5-{[2-(3,5-Bistrifluoromethylphenyl)-2-methylpropionyl]methylamino}-4-(4-fluoro-2-methylphenyl)pyridin-2-yl]spiro[2.5]octane-1-carboxylic Acid], the IC50 at human NK1 receptor is 1.63 nM. For the same compound, the “Conc. (nM), drug concentration” value in series [1] turned out to be 24 nM.
With `Cc1cc(F)ccc1-c1cc(C2CCC(CC(=O)O)CC2)nc(C#N)c1N(C)C(=O)C(C)(C)c1cc(C(F)(F)F)cc(C(F)(F)F)c1` (stereo not shown) [Example 8, {4-[5-{[2-(3,5-Bistrifluoromethylphenyl)-2-methylpropionyl]methylamino}-6-cyano-4-(4-fluoro-2-methylphenyl)pyridin-2-yl]cyclohexyl}acetic Acid], at human NK1 receptor, the IC50 worked out at 4.01 nM. Besides, the “Conc. (nM), drug concentration” value in series [1] is recorded as 59 nM.
For `Cc1ccccc1-c1cc(C2CCC(CC(=O)O)CC2)ncc1N(C)C(=O)C(C)(C)c1cc(C(F)(F)F)cc(C(F)(F)F)c1` (stereo not shown) [Example 9, {4-[5-{[2-(3,5-Bistrifluoromethylphenyl)-2-methylpropionyl]methylamino}-4-ortho-tolylpyridine-yl]-cyclohexyl}acetic Acid] the same measures were 2.35 nM and 47 nM.
The like results for `Cc1cc(F)ccc1-c1cc(C2CCC(C(C)C(=O)O)CC2)ncc1N(C)C(=O)C(C)(C)c1cc(C(F)(F)F)cc(C(F)(F)F)c1` (stereo not shown) [Example 10, 2-{4-[5-{[2-(3,5-Bistrifluoromethylphenyl)-2-methylpropionyl]methylamino}-4-(4-fluoro-2-methylphenyl)pyridin-2-yl]cyclohexyl}propionic Acid] were, in that order, 2.79 nM and 42 nM.
The like results for `Cc1cc(F)ccc1-c1cc([C@H]2CC[C@H](C(C)(C)C(=O)O)CC2)ncc1N(C)C(=O)C(C)(C)c1cc(C(F)(F)F)cc(C(F)(F)F)c1` [Example 11, trans-2-{4-[5-{[2-(3,5-Bistrifluoromethylphenyl)-2-methylpropionyl]methylamino}-4-(4-fluoro-2-methylphenyl)pyridin-2-yl]cyclohexyl}-2-methylpropionic Acid] were, in that order, 6.75 nM and 72 nM.
`Cc1cc(F)ccc1-c1cc([C@H]2CC[C@H](CC(=O)O)CC2)ncc1N(C)C(=O)C(C)(C)c1cc(C(F)(F)F)cc(C(F)(F)F)c1` [Example 13, trans-{4-[5-{[2-(3,5-Bistrifluoromethylphenyl)-2-methylpropionyl]methylamino}-4-(4-fluoro-2-methylphenyl)pyridin-2-yl]cyclohexyl}acetic acid]: on human NK1 receptor, the IC50 turned out to be 1.62 nM. The “Conc. (nM), drug concentration” value in series [1] stood at 51 nM. For the same compound, the “hERG current change rate % (value before application = 100%)” value at hERG channel is reported as 81.1 ± 5.6%.
For the compound `Cc1ccccc1-c1cc(C2CCC(CC(=O)O)CC2)nc(C#N)c1N(C)C(=O)C(C)(C)c1cc(C(F)(F)F)cc(C(F)(F)F)c1` (stereo not shown) [Example 16, [4-(5-{[2-(3,5-Bistrifluoromethylphenyl)-2-methylpropionyl]methylamino}-6-cyano-4-ortho-tolylpyridin-2-yl)cyclohexyl]acetic Acid], the IC50 on human NK1 receptor stood at 2.78 nM. Further, the “Conc. (nM), drug concentration” value in series [1] came out at 64 nM.
On to `Cc1cc(F)ccc1-c1cc([C@H]2CC[C@H](CC(=O)O)CC2)nc(C#N)c1N(C)C(=O)C(C)(C)c1cc(C(F)(F)F)cc(C(F)(F)F)c1` [Example 20, trans-{4-[5-{[2-(3,5-Bistrifluoromethylphenyl)-2-methylpropionyl]methylamino}-6-cyano--4-(4-fluoro-2-methylphenyl)-pyridin-2-yl]cyclohexyl}acetic acid], for which the IC50 at human NK1 receptor was 3.27 nM. For the same compound, the “Conc. (nM), drug concentration” value in series [1] came to 92 nM.
`Cc1cc(F)ccc1-c1cc([C@H]2CC[C@@H](CC(=O)O)CC2)nc(C#N)c1N(C)C(=O)C(C)(C)c1cc(C(F)(F)F)cc(C(F)(F)F)c1` [Example 21, cis-{4-[5-{[2-(3,5-bistrifluoromethylphenyl)-2-methylpropionyl]methylamino}-6-cyano-4-(4-fluoro-2-methylphenyl)pyridin-2-yl]cyclohexyl}acetic acid]: the IC50 at human NK1 receptor is 2.36 nM. Besides, in series [1], the “Conc. (nM), drug concentration” value was 92 nM.
